Results reported in patent US9914697B2, “Methods for making polymorphs of bromfenac sodium and bromfenac sodium formulations” (Johnson Matthey Public Limited Company, priority 2009, dated 2018).

Key:
Assay type in all cases: physicochemical
[1] = Stability of Form I polymorph on exposure to water vapour (XRPD and water content analyses); details: moisturized alongside a dish of water in a bag sealed under nitrogen for 19 h
Description: Sodium salt of 2-amino-3-(4-bromobenzoyl)phenylacetic acid, Form I polymorph (0.6 g) was placed in a drying dish alongside a dish containing water (20 g) in a plastic bag. The bag was sealed under nitrogen and the product allowed to moisturize for 19 h.

[2] = Stability of polymorph towards atmospheric moisture (hydration and conversion); details: must be protected from atmospheric moisture, hydrates to Form I
From the text: If so desired, the above-described procedures for producing bromfenac sodium Form I may be adapted and modified so as to provide a product that is a mixture of bromfenac sodium Form I and bromfenac sodium Form II. Bromfenac sodium Form II is a polymorph that is believed to be a monohydrate of bromfenac sodium, i.e., containing one water molecule per molecule of bromfenac sodium, and characterized by a powder x-ray diffraction pattern having main peaks expressed as 2-theta at about 11.3, 14.4, 16.5, 17.3, 18.5, 19.4, 20.7, 21.0, 22.7, 29.0, 31.8, 34.1 and 36.1 degrees. Drying the crystalline product initially obtained in the crystallization process described above under a vacuum results in the removal of some water of hydration from the sesquihydrate and the formation of the Form II polymorph, as evidenced by XRPD. The vacuum drying conditions may be adjusted so as to vary the Form II polymorph content of the product obtained. For example, higher drying temperatures, lower pressures, and increased drying times will generally all increase the amount of bromfenac sodium Form II present. It is believed that such parameters may be selected so as to provide bromfenac sodium Form II in substantially pure form (i.e., substantially free of any bromfenac sodium Form I or any other polymorph). […]

[3] = Rate of dissolution in water; details: compared with bromfenac sodium Form I or other hydrated forms
[4] = Water adsorption under wet nitrogen hydration conditions in vacuum oven; details: 30-35° C. vacuum oven (5 mm Hg), 17 hours

Structure (SMILES): Nc1c(CC(=O)[O-])cccc1C(=O)c1ccc(Br)cc1.Nc1c(CC(=O)[O-])cccc1C(=O)c1ccc(Br)cc1.O.O.O.[Na+].[Na+] [Bromfenac sodium Form I, sodium salt of 2-amino-3-(4-bromobenzoyl)phenylacetic acid, sesquihydrate]
- change in polymorphic form (XRPD and water content analyses) [1]: no change in polymorphic form

Structure (SMILES): Nc1c(CC(=O)[O-])cccc1C(=O)c1ccc(Br)cc1.[Na+] [Bromfenac sodium Form II, sodium salt of 2-amino-3-(4-bromobenzoyl)phenylacetic acid]
- stability of the polymorph [2]: not stable

Structure (SMILES): Nc1c(CC(=O)[O-])cccc1C(=O)c1ccc(Br)cc1.[Na+] [Bromfenac sodium Form III, sodium salt of 2-amino-3-(4-bromobenzoyl)phenylacetic acid]
- rate of dissolution in water [3]: significantly lower
- water content of sample after wet nitrogen hydration conditions [4]: did not change
